From patent publication US6713499B2, “7-Amino-benzothiazole derivatives” (Hoffman-La Roche Inc., priority 2001, dated 2004)

Biological target: T1, human adenosine A2A receptor (Homo sapiens, UniProt P29274)
T1 construct: expressed in transfected cells; host or cells: CHO cells, Semliki Forest virus expression system; washed membrane pellet used
Test: [3H]-SCH-58261 binding assay on membranes of CHO cells expressing the human adenosine A2A receptor
Details: [3H]-SCH-58261 (1 nM) displacement, CHO cell membranes, SPA beads, 1 hour at room temperature; Ki by Cheng-Prussoff equation
Procedure: Human Adenosine A2A Receptor
The human adenosine A2A receptor was recombinantly expressed in chinese hamster ovary (CHO) cells using the semliki forest virus expression system. Cells were harvested, washed twice by centrifugation, homogenised and again washed by centrifugation. The final washed membrane pellet was suspended in a Tris (50 mM) buffer containing 120 mM NaCl, 5 mM KCl, 2 mM CaCl2 and 10 mM MgCl2 (pH 7.4) (buffer A). The [3H]-SCH-58261 (Dionisotti et al., 1997, Br J Pharmacol 121, 353; 1 nM) binding assay was carried out in 96-well plates in the presence of 2.5 μg of membrane protein, 0.5 mg of Ysi-poly-1-lysine SPA beads and 0.1 U adenosine deaminase in a final volume of 200 μl of buffer A. Non-specific binding was defined using xanthine amine congener (XAC; 2 μM). Compounds were tested at 10 concentrations from 10 μM-0.3 nM. All assays were conducted in duplicate and repeated at least two times. Assay plates were incubated for 1 hour at room temperature before centrifugation and then bound ligand determined using a Packard Topcount scintillation counter. IC50 values were calculated using a non-linear curve fitting program and Ki values calculated using, the Cheng-Prussoff equation.

T1 sequence (P29274 whole entry): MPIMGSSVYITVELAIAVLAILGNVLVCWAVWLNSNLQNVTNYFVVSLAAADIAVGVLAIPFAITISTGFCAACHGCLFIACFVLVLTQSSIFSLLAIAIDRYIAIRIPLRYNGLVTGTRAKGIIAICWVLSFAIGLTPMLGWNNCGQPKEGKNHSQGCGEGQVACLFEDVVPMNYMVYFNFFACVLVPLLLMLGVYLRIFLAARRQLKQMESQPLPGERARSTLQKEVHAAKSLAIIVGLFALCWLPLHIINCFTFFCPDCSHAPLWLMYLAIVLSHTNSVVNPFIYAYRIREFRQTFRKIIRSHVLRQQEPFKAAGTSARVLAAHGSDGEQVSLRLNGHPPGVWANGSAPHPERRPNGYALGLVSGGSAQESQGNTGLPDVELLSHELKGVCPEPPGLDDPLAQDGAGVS

| hA2 (pKi) | Structure (SMILES) |
| --- | --- |
| 7.33 | COc1ccc(N(C)C2CCOCC2)c2sc(NC(=O)c3ccnc(N4CCOCC4)c3)nc12 [Example 38, N-{4-Methoxy-4-[methyl-(tetrahydro-pyran-4-yl)-amino]-benzothiazol-2-yl}-2-morpholin-4-yl-isonicotinamide] |

Same assay, conditions: [3H]-SCH-58261 (1 nM) displacement, CHO cell membranes, SPA beads, 1 hour at room temperature; Ki by Cheng-Prussoff equation; read-out: hA2 (pKi) (converted)

| Structure (SMILES) | Ki |
| --- | --- |
| COCCN(C)c1ccc(OC)c2nc(NC(=O)c3ccccc3)sc12 [Example 1, N-{4-Methoxy-7-[(2-methoxy-ethyl)-methyl-amino]-benzothiazol-2-yl}-benzamide] | 0.0525 µM |
| COCCN(C)c1ccc(OC)c2nc(NC(=O)c3ccc(F)cc3)sc12 [Example 2, 4-Fluoro-N-{4-methoxy-7-[(2-methoxy-ethyl)-methyl-amino]-benzothiazol-2-yl}-benzamide] | 0.038 µM |
| COCCN(C)c1ccc(OC)c2nc(NC(=O)c3ccc(CCl)cc3)sc12 [Example 3, 4-Chloromethyl-N-{4-methoxy-7-[(2-methoxy-ethyl)-methyl-amino]-benzothiazol-2-yl}-benzamide] | 0.0372 µM |
| COCCN(C)c1ccc(OC)c2nc(NC(=O)c3ccnc(N4CCOCC4)c3)sc12 [Example 6, N-{4-Methoxy-7-[(2-methoxy-ethyl)-methyl-amino]-benzothiazol-2-yl}-2-morpholin-4-yl-isonicotinamide] | 0.0525 µM |
| COc1ccc(N(Cc2ccc(C)cc2)C(C)=O)c2sc(NC(=O)c3ccccc3)nc12 [Example 10, N-{7-[Acetyl-(4-methyl-benzyl)-amino]-4-methoxy-benzothiazol-2-yl}-benzamide] | 0.0115 µM |
| COc1ccc(N(C)C)c2sc(NC(=O)c3ccc(F)cc3)nc12 [Example 12, N-(7-Dimethylamino-4-methoxy-benzothiazol-2-yl)-4-fluoro-benzamide] | 0.0741 µM |
| COc1ccc(N(C)Cc2ccccc2)c2sc(NC(=O)c3ccc(F)cc3)nc12 [Example 14, N-[7-(Benzyl-methyl-amino)-4-methoxy-benzothiazol-2-yl]-4-fluoro-benzamide] | 0.0389 µM |
| COc1ccc(N(C)Cc2ccccn2)c2sc(NC(=O)c3ccc(F)cc3)nc12 [Example 15, 4-Fluoro-N-[4-methoxy-7-(methyl-pyridin-2-ylmethyl-amino)-benzothiazol-2-yl]-benzamide] | 0.0617 µM |
| COc1ccc(N(C)Cc2ccccc2)c2sc(NC(=O)c3ccnc(C)c3)nc12 [Example 16, N-[7-(Benzyl-methyl-amino)-4-methoxy-benzothiazol-2-yl]-2-methyl-isonicotinamide] | 0.0155 µM |

Now from value to molecule:

| Ki | Structure (SMILES) |
| --- | --- |
| 0.0603 µM | COc1ccc(N(C)CC(=O)N(C)C)c2sc(NC(=O)c3ccc(F)cc3)nc12 [Example 17, N-[7-(Dimethylcarbamoylmethyl-methyl-amino)-4-methoxy-benzothiazol-2-yl]-4-fluoro-benzamide] |
| 0.0132 µM | COc1ccc(N(C)C(C)=O)c2sc(NC(=O)c3ccc(F)cc3)nc12 [Example 19, N-[7-(Acetyl-methyl-amino)-4-methoxy-benzothiazol-2-yl]-4-fluoro-benzamide] |
| 0.0617 µM | CCN(CC(=O)N(C)C)c1ccc(OC)c2nc(NC(=O)c3ccc(F)cc3)sc12 [Example 20, N-[7-(Dimethylcarbamoylmethyl-ethyl-amino)-4-methoxy-benzothiazol-2-yl]-4-fluoro-benzamide] |
| 0.01 µM | CCN(C(C)=O)c1ccc(OC)c2nc(NC(=O)c3ccc(F)cc3)sc12 [Example 21, N-[7-(Acetyl-ethyl-amino)-4-methoxy-benzothiazol-2-yl]-4-fluoro-benzamide] |
| 0.0107 µM | COc1ccc(N(Cc2ccccc2)C(C)=O)c2sc(NC(=O)c3ccc(F)cc3)nc12 [Example 24, N-[7-(Acetyl-benzyl-amino)-4-methoxy-benzothiazol-2-yl]-4-fluoro-benzamide] |
| 0.0525 µM | COc1ccc(N(Cc2ccccc2)C(C)=O)c2sc(NC(=O)c3ccnc(Br)c3)nc12 [Example 25, N-[7-(Acetyl-benzyl-amino)-4-methoxy-benzothiazol-2-yl]-2-bromo-isonicotinamide] |
| 0.0178 µM | COCCN(C(C)=O)c1ccc(OC)c2nc(NC(=O)c3ccc(F)cc3)sc12 [Example 26, N-{7-[Acetyl-(2-methoxy-ethyl)-amino]-4-methoxy-benzothiazol-2-yl}-4-fluoro-benzamide] |
| 0.049 µM | COc1ccc(CN(C)c2ccc(OC)c3nc(NC(=O)c4ccc(F)cc4)sc23)cc1 [Example 28, 4-Fluoro-N-{4-methoxy-7-[(4-methoxy-benzyl)-methyl-amino]-benzothiazol-2-yl}-benzamide] |
| 0.0263 µM | COc1ccc(CN(C)c2ccc(OC)c3nc(NC(=O)c4ccnc(C)c4)sc23)cc1 [Example 30, N-{4-Methoxy-7-[(4-methoxy-benzyl)-methyl-amino]-benzothiazol-2-yl}-2-methyl-isonicotinamide] |
| 0.0331 µM | COc1ccc(N(C)Cc2ccccc2)c2sc(NC(=O)c3ccnc(Br)c3)nc12 [Example 32, N-[7-(Benzyl-methyl-amino)-4-methoxy-benzothiazol-2-yl]-2-bromo-isonicotinamide] |
| 0.011 µM | COc1ccc(N(C)Cc2ccccc2)c2sc(NC(=O)c3ccnc(N4CCOCC4)c3)nc12 [Example 35, N-[7-(Benzyl-methyl-amino)-4-methoxy-benzothiazol-2-yl]-2-morpholin-4-yl-isonicotinamide] |
| 0.0562 µM | COc1ccc(N(C)C2CCOCC2)c2sc(NC(=O)c3ccc(F)cc3)nc12 [Example 37, 4-Fluoro-N-{4-methoxy-7-[methyl-(tetrahydro-pyran-4-yl)-amino]-benzothiazol-2-yl}-benzamide] |
